Measurements published in PMC4822888, “Subtype-Selective Small Molecule Inhibitors Reveal a Fundamental Role for Nav1.7 in Nociceptor Electrogenesis, Axonal Conduction and Presynaptic Release” (PLoS ONE, 2016).

Legend:
[1] = system: PDE4 rolipram binding; test: Off target activity panel; conditions: 10 µM
[2] = target: PDE11 (Homo sapiens, UniProt Q9HCR9); test: Off target activity panel; assay type: biochemical; conditions: read-out: Inhibition at test concentration (%)
[3] = target: Serotonin 5-HT7 (Homo sapiens, UniProt P34969); test: Off target activity panel; assay type: binding; conditions: read-out: Inhibition at test concentration (%)
Chain of Serotonin 5-HT7 (P34969 whole entry): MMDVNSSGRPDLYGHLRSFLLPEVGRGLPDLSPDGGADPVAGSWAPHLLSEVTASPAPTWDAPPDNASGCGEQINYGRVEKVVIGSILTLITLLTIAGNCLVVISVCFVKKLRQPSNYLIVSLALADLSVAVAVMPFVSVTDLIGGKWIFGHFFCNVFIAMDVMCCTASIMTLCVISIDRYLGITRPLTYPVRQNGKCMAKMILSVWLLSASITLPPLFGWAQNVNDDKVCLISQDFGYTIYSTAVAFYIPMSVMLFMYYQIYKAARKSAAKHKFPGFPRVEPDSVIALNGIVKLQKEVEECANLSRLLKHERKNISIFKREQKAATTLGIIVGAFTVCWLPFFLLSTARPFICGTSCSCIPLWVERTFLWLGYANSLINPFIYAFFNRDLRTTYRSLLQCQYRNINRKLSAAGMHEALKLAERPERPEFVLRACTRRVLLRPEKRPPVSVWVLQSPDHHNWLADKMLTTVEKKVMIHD

[4] = target: T1, PPAR gamma (Homo sapiens, UniProt P37231); test: Off target panel, functional activity (agonist/antagonist); assay type: biochemical; conditions: at 10 µM
T1 sequence (P37231 1-505): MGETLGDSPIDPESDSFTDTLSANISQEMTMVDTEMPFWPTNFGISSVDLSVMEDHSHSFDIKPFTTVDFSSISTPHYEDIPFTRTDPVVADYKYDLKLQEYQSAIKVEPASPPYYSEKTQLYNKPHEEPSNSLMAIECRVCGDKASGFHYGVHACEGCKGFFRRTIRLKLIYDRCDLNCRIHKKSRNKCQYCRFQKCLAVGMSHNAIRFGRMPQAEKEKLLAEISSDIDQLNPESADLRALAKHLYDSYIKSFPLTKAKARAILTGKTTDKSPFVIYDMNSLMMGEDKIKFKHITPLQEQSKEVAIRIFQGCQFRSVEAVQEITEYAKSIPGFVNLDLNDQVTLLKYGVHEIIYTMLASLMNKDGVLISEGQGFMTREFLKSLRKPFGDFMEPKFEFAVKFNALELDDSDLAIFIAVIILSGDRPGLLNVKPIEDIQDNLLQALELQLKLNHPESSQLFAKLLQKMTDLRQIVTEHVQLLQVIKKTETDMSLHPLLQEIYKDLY

[5] = target: T1, PPAR gamma; test: Off target activity panel; assay type: binding

Chain of PDE11 (Q9HCR9 whole entry): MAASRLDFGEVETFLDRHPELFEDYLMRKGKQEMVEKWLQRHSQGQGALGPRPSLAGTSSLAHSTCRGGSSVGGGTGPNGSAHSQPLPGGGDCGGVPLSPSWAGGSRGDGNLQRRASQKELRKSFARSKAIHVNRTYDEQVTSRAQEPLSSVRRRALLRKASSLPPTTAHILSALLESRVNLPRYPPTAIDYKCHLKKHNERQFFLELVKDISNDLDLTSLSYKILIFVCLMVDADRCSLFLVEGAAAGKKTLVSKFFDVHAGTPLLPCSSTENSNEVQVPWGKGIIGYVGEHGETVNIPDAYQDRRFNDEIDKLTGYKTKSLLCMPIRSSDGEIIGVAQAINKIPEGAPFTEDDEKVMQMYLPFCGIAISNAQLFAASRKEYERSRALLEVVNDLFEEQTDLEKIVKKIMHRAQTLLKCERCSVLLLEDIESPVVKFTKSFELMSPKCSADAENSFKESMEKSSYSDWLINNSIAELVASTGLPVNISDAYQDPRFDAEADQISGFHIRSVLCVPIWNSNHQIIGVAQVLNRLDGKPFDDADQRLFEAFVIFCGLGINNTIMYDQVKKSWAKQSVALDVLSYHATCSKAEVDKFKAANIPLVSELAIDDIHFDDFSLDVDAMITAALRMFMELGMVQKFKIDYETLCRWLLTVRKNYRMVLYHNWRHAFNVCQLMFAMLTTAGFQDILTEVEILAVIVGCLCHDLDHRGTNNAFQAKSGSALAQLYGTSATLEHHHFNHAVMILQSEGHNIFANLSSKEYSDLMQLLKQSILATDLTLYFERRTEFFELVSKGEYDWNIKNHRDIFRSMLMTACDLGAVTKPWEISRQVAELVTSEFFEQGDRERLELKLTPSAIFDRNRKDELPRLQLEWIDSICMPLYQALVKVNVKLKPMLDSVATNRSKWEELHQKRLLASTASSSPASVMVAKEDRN

With `Nc1[nH]ncc1-c1cc(Cl)ccc1Oc1cc(F)c(S(=O)(=O)Nc2cscn2)cc1Cl` [PF-05089771, 4-[2-(5-amino-1H-pyrazol-4-yl)-4-chlorophenoxy]-5-chloro-2-fluoro-N-(1,3-thiazol-4-yl)benzenesulfonamide] the “Inhibition at test concentration (%)” value [1] was 10%, the inhibition at 10 µM [2] was 6% and the inhibition at 10 µM [3] was -7%. For the same molecule, the Functional activity [4] was “no agonist or antagonist activity at 10 µM”, the inhibition at 10 µM ([5]; 10 µM, read-out: Inhibition at test concentration (%)) was 60% and the Ki ([5]; PPAR gamma) was 2800 nM.
